# Measurements: patent US8278310B2, “Amine salts of a CRTH2 antagonist” (Actimis Pharmaceuticals, Inc., priority 2007, dated 2012)
# Experiments:
# [1] = Aqueous solubility of the salts from base screening; assay type: physicochemical; details: salt of the acid of Formula I with the named base
# CRTH2 = target: T1, CRTH2 (Homo sapiens, UniProt Q9Y5Y4); test: Competitive radioligand (3H-PGD2) binding assay using CRTH2-transfected cells; details: 1 nM 3H-PGD2, FIG. 20
# T1 construct: expressed in transfected cells
# T1 sequence (Q9Y5Y4 1-395): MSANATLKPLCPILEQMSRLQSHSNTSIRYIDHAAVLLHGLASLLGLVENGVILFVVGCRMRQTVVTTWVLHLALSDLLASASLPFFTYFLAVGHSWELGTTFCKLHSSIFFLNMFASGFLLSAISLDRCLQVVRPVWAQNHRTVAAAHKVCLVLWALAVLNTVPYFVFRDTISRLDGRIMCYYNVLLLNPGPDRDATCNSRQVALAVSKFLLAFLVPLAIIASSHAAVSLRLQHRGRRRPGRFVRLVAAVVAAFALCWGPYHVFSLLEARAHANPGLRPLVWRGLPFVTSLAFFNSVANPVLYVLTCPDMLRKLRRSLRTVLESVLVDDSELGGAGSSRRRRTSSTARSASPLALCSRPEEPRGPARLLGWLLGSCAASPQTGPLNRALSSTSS
# Description: The surface expression of CRTH2 on the transfected cell lines was monitored periodically during culture and prior to each competitive radioligand binding assay. […] The cells were then washed in 2 mL of FACS buffer (PBS containing 1% BSA (Fraction V) and 0.1% sodium azide. The cells were subsequently incubated on ice with a FITC-conjugated anti-rat antibody (goat anti-rat Ig-FITC). After washed with cold FACS buffer, the cells were analyzed using a FACScan II analyzer and CellQuest software, both from Becton Dickinson (Mountain View, Calif.).
# The test compounds were dissolved in DMSO at a concentration of 100 mM as stock solutions. Serial dilutions from 10 μM were made in binding buffer prior to assay. Transfected cells were resuspended in binding buffer (50 mM Tris-HCl, 40 mM MgCl2, and 0.1% bovine serum albumin, at pH 7.4) at a concentration of 4×10^6/mL at room temperature. Transfected cells were then seeded in U-bottom polypropylene 96-well plates (Fisher) by adding 50 μL of the cell suspension, followed by addition of 10 μL of ^3H-PGD2, 10 μL of the test compound solutions at a series of concentrations or controls, 30 μL of the binding buffer to bring the final volume to 100 μL. […] Scintillant (50 μL; Microscint™20, Perkin Elmer, Boston, Mass.) was added to each well and the radioactivity was counted on a TopCount (Packard Bioscience, Meriden, Conn.). […]
# DP1 = target: T2, DP1 (Homo sapiens, UniProt Q13258); test: Competitive radioligand (3H-PGD2) binding assay using DP1-transfected cells; details: CRTH2- versus DP1-transfected cells, FIGS. 20 and 21
# T2 sequence (Q13258 1-359): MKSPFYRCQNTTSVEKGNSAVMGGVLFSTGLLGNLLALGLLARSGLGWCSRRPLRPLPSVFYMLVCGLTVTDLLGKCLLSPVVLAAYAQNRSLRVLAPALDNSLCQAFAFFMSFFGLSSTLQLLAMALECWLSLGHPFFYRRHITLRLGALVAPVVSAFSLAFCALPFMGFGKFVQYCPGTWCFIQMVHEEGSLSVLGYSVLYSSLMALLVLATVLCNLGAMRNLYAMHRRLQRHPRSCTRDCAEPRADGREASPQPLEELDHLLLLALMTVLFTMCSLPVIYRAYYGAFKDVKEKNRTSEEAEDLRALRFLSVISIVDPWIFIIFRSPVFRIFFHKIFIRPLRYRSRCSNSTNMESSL
# Description: The binding affinity and selectivity of the amine salts of 4,6-bis(dimethylamino)-2-(4-(4-(trifluoromethyl)benzamido)benzyl)pyrimidin-5-yl}acetic acid provided herein were evaluated using a competitive radioligand binding assay with stably-transfected cell lines expressing CRTH2 or DP1.
# The CRTH2 and DP1 stable cell lines were generated according to the procedure described by Sugimoto et al. (J. Pharm. Exp. Therap. 2003, 305, 347-352). These cell lines were maintained in RPMI 1640 culture medium containing HEPES buffer (25 mM), FCS (10%), L-glutamine (2 mM), penicillin (10 IU/mL), streptomycin (100 μg/mL), and puromycin (1 μg/mL).
# Radioligand binding analyses were performed according to the methods of Sugimoto et al. (J. Pharm. Exp. Therap. 2003, 305, 347-352; Eur. J. Pharmacol. 2005, 524, 30-37). The test compounds were dissolved in DMSO at a concentration of 100 mM as stock solutions. Serial dilutions from 10 μM were made in binding buffer prior to assay. Transfected cells were resuspended in binding buffer (50 mM Tris-HCl, 40 mM MgCl2, and 0.1% bovine serum albumin, at pH 7.4) at a concentration of 4×10^6/mL at room temperature. […] Scintillant (50 μL; Microscint™20, Perkin Elmer, Boston, Mass.) was added to each well and the radioactivity was counted on a TopCount (Packard Bioscience, Meriden, Conn.). […]
compound,measurement,setting,value
"CN(C)c1nc(Cc2ccc(NC(=O)c3ccc(C(F)(F)F)cc3)cc2)nc(N(C)C)c1CC(=O)O.c1ccc(CNCCNCc2ccccc2)cc1 [Benzathine, Benzathine Salt of {4,6-Bis(dimethylamino)-2-(4-(4-(trifluoromethyl)benzamido)benzyl)pyrimidin-5-yl}Acetic Acid]",Aqueous Solubility at 25° C.,[1],0.08 mg/mL
"CN(C)c1nc(Cc2ccc(NC(=O)c3ccc(C(F)(F)F)cc3)cc2)nc(N(C)C)c1CC(=O)O [Formula I, {4,6-bis(dimethyl-amino)-2-(4-(4-(trifluoro-methyl)benzamido)benzyl)pyrimidin-5-yl}acetic acid]",binding affinity for CRTH2,CRTH2,high affinity
same,binding selectivity for CRTH2,DP1,bind selectively
"piperazine Salt of {4,6-Bis(dimethylamino)-2-(4-(4-(trifluoromethyl)benzamido)benzyl)pyrimidin-5-yl}Acetic Acid",Aqueous Solubility at 25° C.,[1],5.4 mg/mL
